Consider 4 compounds from patent US6342483B1, “Method for detection and treatment of breast cancer” (Vanderbilt University, priority 1994, dated 2002).

One data set concerns MCF-7 cells. As to the kind of experiment: Nuclear labelling with tritiated thymidine in synchronized MCF-7 cells. Type of data set: cell-based, human. The note with it: tamoxifen 48 hours, then 1 uM estradiol. From the text:
(§1) In order to critically evaluate the function of BRCA1 gene inhibition on growth stimulation and cell cycle progression it was necessary to identify a gene whose expression is cell cycle regulated in human mammary cells. […] Because ribonucleotide reductase constitutes the rate limiting step in DNA synthesis, we reasoned that it might be cell cycle regulated in a synchronous growth model such as MCF-7 cells which can be growth arrested by tamoxifen and then restimulated by estrogen (Aitken et al. 1985, Arteaga et al. 1989). MCF-7 cells were growth arrested by tamoxifen for 48 hours and then stimulated at time zero (0) with 1 uM estradiol (+E) or control vehicle (−E).

In data set [1] the test system is ribonucleotide reductase M2 gene. Description: Northern blot and nuclear run on of ribonucleotide reductase M2 in synchronized MCF-7 cells. Type of data set: cell-based, human. The following applies: tamoxifen 48 hours, then 1 uM estradiol.
Source text: as §1
FIG. 13A is a Northern blot of mRNA from synchronized MCF-7 cells. At the indicated time in hours, total cellular RNA was isolated and Northern blotting performed using the 1.6 Kb Eco RI fragment from our cloned human ribonucleotide reductase cDNA described above. Two mRNA species of 1.6 and 3.4 Kb are observed in these studies.
Con represents cells which were grown for 48 hours but not treated with tamoxifen.

In data set [2] the test system is MCF-7 breast cancer cells. Description: Growth rate of MCF-7 cells incubated with antisense or sense oligonucleotide. The note with it: 40 uM oligonucleotide, single bolus, FIG. 12B. The class given is cell-based, human. The source says: (§2) Unmodified 18 base deoxyribonucleotide complementary to the BRCA1 translation initiation site were synthesized and added to cultures of primary mammary epithelial cells (Stampfer et al. 1980) or MCF-7 breast cancer cells (Soule and McGrath, 1980). FIG. 12 is graph showing growth rate of human primary mammary epithelial cells (A), MCF-7 cells (B), retinal pigmented epithelial cells (C), cultured as described below. Points and bars represent the mean and the 95% confidence interval of triplicate counts of cells incubated with a single bolus of the indicated concentration of antisense or control sense deoxyribonucleotide.
(§3) Antisense oligonucleotide studies. Unmodified deoxyribonucleotide were analyzed by gel electrophoresis and UV shadowing and shown to be homogenous and of appropriate size. These oligonucleotide were purified by multiple lyophilization and solubilized in buffered media as described (Holt et al. 1988). Sequence of the unmodified antiBRCA1 oligonucleotide 5′AAG AGC AGA TAA ATC CAT 3′(SEQ ID NO: 52) and the complementary sense oligonucleotide 5′ATG GAT TTA TCT GCT CTT 3′ (SEQ ID NO:53) correspond to the presumed translation initiation site at bases 12-137 of the GenBank sequence. The antisense oligonucleotide sequence was searched against GenBank and no significant homologies were identified to genes except BRCA1. […]

The subject of another data set is BRCA1 mRNA. As to the kind of experiment: Nuclease protection assay of BRCA1 mRNA after antisense treatment. Type of data set: cell-based, human. The following applies: compared with cells treated with sense control oligonucleotide; 40 uM, 4 days; lanes 9 and 10 FIG. 14 (primary mammary epithelial cells). On the procedure:
(§4) Antisense inhibition is a useful strategy for studying gene expression which is dependent on expression of the antisense target gene (Robinson-Benion and Holt, in press, 1995), e.g. genes whose expression is directly or indirectly dependent on BRCA1 levels. […] A nuclease protection assay of mRNA derived from primary mammary epithelial cells (lanes 1-4, 9-10) or MCF-7 cells Oanes 5-8, 11-12) cultured for 4 days with antisense or control oligonucleotide was performed under the following conditions: no oligonucleotide (lanes 1 and 5); 40 uM antiBRCA1 (lanes 2,6,10,12); 4 uM antiBRCA1 (lanes 3 and 7); 40 uM sense control (lanes 4,8,9,11). Probes for BRCA1 and GAPD are as described for FIG. 10, and the ribonucleotide reductase M2 probe (RR) detects the 200 bp probe is described above.
(§5) Nuclease Protection Assays. PCR primers were derived from BRCA1 sequence in GenBank (Accession number U14680); forward 5′CAA TTG GGC AGA TGT GT 3′ (SEQ ID NO:50) and reverse 5′CTGGGGGATCTGGGGTATCA 3′ (SEQ ID NO:51) which amplify a 113 bp region from exon 24, corresponding to bases 5587 to 5699 of the human BRCA1. This region was selected because this exon has not been reported to be differentially spliced unlike more 5′ exons. […]
(§6) Antisense oligonucleotide studies. Unmodified deoxyribonucleotide were analyzed by gel electrophoresis and UV shadowing and shown to be homogenous and of appropriate size. […]

Data set [3] relates to human retinal pigmented epithelial cells. Description: Growth rate of retinal pigmented epithelial cells incubated with antisense or sense oligonucleotide. The class given is cell-based. The note with it: 40 uM oligonucleotide, single bolus; FIG. 12C.
Source text: as §2, §3

In data set [4] the test system is ribonucleotide reductase M2 mRNA. Description: Nuclease protection assay of ribonucleotide reductase M2 mRNA after antisense treatment, primary mammary epithelial cells. Type of data set: cell-based, human. The note with it: 40 uM, cultured 4 days. On the procedure: as §4, §5, §6
In data set [5] the test system is human primary mammary epithelial cells. As to the kind of experiment: Growth rate of primary mammary epithelial cells incubated with antisense or sense oligonucleotide. The class given is cell-based.
Source text: as §2
Antisense oligonucleotide studies. Unmodified deoxyribonucleotide were analyzed by gel electrophoresis and UV shadowing and shown to be homogenous and of appropriate size. These oligonucleotide were purified by multiple lyophilization and solubilized in buffered media as described (Holt et al. 1988). Sequence of the unmodified antiBRCA1 oligonucleotide 5′AAG AGC AGA TAA ATC CAT 3′(SEQ ID NO: 52) and the complementary sense oligonucleotide 5′ATG GAT TTA TCT GCT CTT 3′ (SEQ ID NO:53) correspond to the presumed translation initiation site at bases […] of the GenBank sequence. The antisense oligonucleotide sequence was searched against GenBank and no significant homologies were identified to genes except BRCA1. Oligonucleotides were used according to our published methods (Holt et al. 1988). Primary mammary epithelial cells were cultured in serum-free medium supplemented with epidermal growth factor, insulin, hydrocortisone, ethanolamine, phosphorylethanolamine, and bovine pituitary extract. MCF-7 cells were cultured in Minimum Essential Medium Eagle (Modified) with Earle's salts and 2g/L sodium bicarbonate m supplemented with 2 mM L-glutamine, GMS-A (Gibco Cat. #680-1300AD), nonessential amino acids, and 2.5% fetal calf serum. Retinal pigmented perithelial cells were cultured in DMEM and 10% calf serum.

Data set [6] concerns ribonucleotide reductase M2 mRNA. As to the kind of experiment: Nuclease protection assay of ribonucleotide reductase M2 mRNA after antisense treatment, MCF-7 cells. The class given is cell-based, human. The following applies: 40 uM, cultured 4 days. On the procedure:
as §4, §5, §6

On to `C[C@]12CC[C@@H]3c4ccc(O)cc4CC[C@H]3[C@@H]1CC[C@@H]2O` [estrogen, estradiol], for which the DNA synthesis entry in the data set on MCF-7 cells is given as “induction of synthesis”. In data set [1], the “transcription of the ribonucleotide reductase M2 gene” value is “induced”.

Take `CC/C(=C(\c1ccccc1)c1ccc(OCCN(C)C)cc1)c1ccccc1` [tamoxifen]: the DNA synthesis entry in the data set with MCF-7 cells is listed as “Inhibition of DNA synthesis”. The “transcription of the ribonucleotide reductase M2 gene” value in data set [1] is given as “inhibited”.

Regarding “anti-BRCA1 oligonucleotide: Unmodified 18 base deoxyribonucleotide complementary to the BRCA1 translation initiation site, 5′AAG AGC AGA TAA ATC CAT 3′ (SEQ ID NO: 52) (antisense AAGAGCAGATAAATCCAT; unmodified DNA)”, in data set [2], the “growth of malignant mammary cells” value was “accelerated growth”. For the same compound, the “inhibition of BRCA1 mRNA levels” value in the data set on BRCA1 mRNA is 70-90%. Moreover, in data set [3], the “growth of human retinal pigmented epithelial cells” value was “did not affect the growth”. The “ribonucleotide reductase mRNA levels” value in data set [4] and in data set [6] was “highest” throughout. The “growth of normal mammary cells” value in data set [5] (40 uM oligonucleotide, single bolus, FIG. 12A) is listed as “accelerated growth”. Besides, the “morphologic appearance of the cell lines” value in data set [5] (addition of antisense oligonucleotide) was “not noticeably changed”. Further, in data set [5] (addition of antisense oligonucleotide, dose not stated), the “proliferative rate of the cell lines” value is reported as “faster”. Moreover, in data set [5] (intermediate dose, cell line not given), the cell growth rate entry is given as “less pronounced but significant increase”.

As to “sense oligomer: Complementary sense control oligonucleotide with the same GC content, 5′ATG GAT TTA TCT GCT CTT 3′ (SEQ ID NO:53) (sense ATGGATTTATCTGCTCTT; further chemistry not given here) [reference compound]”, in data set [5] (10 fold excess of sense oligomer added to the anti-BRCA1 oligomer, cell line not specified), the “growth activation by anti-BRCA1 oligomer” value is “reversed the growth activation”. In data set [5] (control oligomer with the same GC content, cell line not specified), the proliferation rate entry was “did not increase the proliferation rate”.
